Assay results taken from ChEMBL document CHEMBL2380240, “Discovery, synthesis, selectivity modulation and DMPK characterization of 5-azaspiro[2.4]heptanes as potent orexin receptor antagonists” (Bioorg Med Chem Lett, 2013).

Key:
CYP3A4 [1] = target: T1, CYP3A4 (Homo sapiens, UniProt P08684); assay: Inhibition of human recombinant CYP3A4 using DBF as substrate at 1 uM by fluorimetric assay; format: ADME; conditions: recombinant CYP3A4, probe DBF
[2] = target: T2, Orexin/Hypocretin receptor type 1 (Homo sapiens) (UniProt O43613); assay: Antagonist activity at human recombinant OX1 receptor expressed in CHO cells assessed as OXA-stimulated intracellular calcium mobilization by FLIPR assay; format: functional, cell-based
T2 sequence (whole entry): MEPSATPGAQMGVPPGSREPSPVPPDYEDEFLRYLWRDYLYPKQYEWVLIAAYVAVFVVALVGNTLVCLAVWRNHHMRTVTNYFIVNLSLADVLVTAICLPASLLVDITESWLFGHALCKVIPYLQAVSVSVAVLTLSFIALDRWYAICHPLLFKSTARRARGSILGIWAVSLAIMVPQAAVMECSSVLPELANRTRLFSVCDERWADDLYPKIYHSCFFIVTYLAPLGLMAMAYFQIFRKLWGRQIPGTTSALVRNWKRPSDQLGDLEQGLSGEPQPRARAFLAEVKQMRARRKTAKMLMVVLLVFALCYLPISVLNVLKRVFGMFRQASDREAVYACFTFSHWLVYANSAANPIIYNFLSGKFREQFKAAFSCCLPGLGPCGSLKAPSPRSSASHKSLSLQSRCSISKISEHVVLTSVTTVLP

CYP1A2 [3] = target: T3, CYP1A2 (Homo sapiens, UniProt P05177); assay: Inhibition of human recombinant CYP1A2 at 1 uM by fluorimetric assay; format: ADME
T3 sequence (P05177 whole entry): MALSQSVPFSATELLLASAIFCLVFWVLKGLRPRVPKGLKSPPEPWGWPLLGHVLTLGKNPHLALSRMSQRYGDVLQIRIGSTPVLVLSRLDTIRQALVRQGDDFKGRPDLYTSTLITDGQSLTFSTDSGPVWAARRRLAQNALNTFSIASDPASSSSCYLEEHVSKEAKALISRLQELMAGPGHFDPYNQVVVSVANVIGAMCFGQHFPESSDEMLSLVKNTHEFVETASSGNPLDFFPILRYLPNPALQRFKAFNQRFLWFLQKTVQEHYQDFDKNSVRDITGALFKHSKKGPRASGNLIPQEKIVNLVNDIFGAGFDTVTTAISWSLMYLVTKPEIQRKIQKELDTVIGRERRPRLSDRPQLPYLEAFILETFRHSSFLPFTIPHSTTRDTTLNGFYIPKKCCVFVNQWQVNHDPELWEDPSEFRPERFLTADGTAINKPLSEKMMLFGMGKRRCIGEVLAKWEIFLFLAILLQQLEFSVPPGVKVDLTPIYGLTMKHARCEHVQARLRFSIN

CYP2C9 [4] = target: T4, CYP2C9 (Homo sapiens, UniProt P11712); assay: Inhibition of human recombinant CYP2C9 at 1 uM by fluorimetric assay; format: ADME
CYP2C19 [5] = target: T5, CYP2C19 (Homo sapiens, UniProt P33261); assay: Inhibition of human recombinant CYP2C19 at 1 uM by fluorimetric assay; format: ADME
CYP2D6 [6] = target: T6, CYP2D6 (Homo sapiens, UniProt P10635); assay: Inhibition of human recombinant CYP2D6 at 1 uM by fluorimetric assay; format: ADME
[7] = target: T7, Orexin receptor type 2 (Homo sapiens) (UniProt O43614); assay: Antagonist activity at human recombinant OX2 receptor expressed in HEK293 cells assessed as OXB-stimulated intracellular calcium mobilization by FLIPR assay; format: functional, cell-based
T7 sequence (whole entry): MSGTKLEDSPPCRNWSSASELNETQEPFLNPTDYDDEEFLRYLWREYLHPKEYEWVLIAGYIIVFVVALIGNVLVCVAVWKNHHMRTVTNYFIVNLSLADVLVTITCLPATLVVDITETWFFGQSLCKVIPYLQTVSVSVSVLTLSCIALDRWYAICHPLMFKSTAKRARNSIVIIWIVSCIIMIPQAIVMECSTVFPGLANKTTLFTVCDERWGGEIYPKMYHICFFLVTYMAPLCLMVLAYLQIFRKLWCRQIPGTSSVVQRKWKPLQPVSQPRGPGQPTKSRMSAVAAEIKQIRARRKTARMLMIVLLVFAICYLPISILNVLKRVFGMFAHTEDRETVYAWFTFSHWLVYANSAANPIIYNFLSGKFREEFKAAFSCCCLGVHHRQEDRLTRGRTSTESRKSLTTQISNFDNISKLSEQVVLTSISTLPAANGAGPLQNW

CYP3A4 [8] = target: T1, CYP3A4; assay: Inhibition of human recombinant CYP3A4 using BFC as substrate at 1 uM by fluorimetric assay; format: ADME; conditions: recombinant CYP3A4, probe BFC
CYP2C19 [9] = target: T5, CYP2C19; assay: Inhibition of human recombinant CYP2C19 at 3 uM by fluorimetric assay; format: ADME
CYP3A4 [10] = target: T1, CYP3A4; assay: Inhibition of human recombinant CYP3A4 using DBF as substrate at 3 uM by fluorimetric assay; format: ADME; conditions: recombinant CYP3A4, probe DBF
CYP3A4 [11] = target: T1, CYP3A4; assay: Inhibition of human recombinant CYP3A4 using BFC as substrate at 3 uM by fluorimetric assay; format: ADME; conditions: recombinant CYP3A4, probe BFC
CYP2D6 [12] = target: T6, CYP2D6; assay: Inhibition of human recombinant CYP2D6 at 3 uM by fluorimetric assay; format: ADME
CYP2C9 [13] = target: T4, CYP2C9; assay: Inhibition of human recombinant CYP2C9 at 3 uM by fluorimetric assay; format: ADME
CYP1A2 [14] = target: T3, CYP1A2; assay: Inhibition of human recombinant CYP1A2 at 3 uM by fluorimetric assay; format: ADME
[15] = Volume of distribution at steady state in rat; format: ADME, organism-based; conditions: in vivo, read-out: Vdss
[16] = Ratio of drug uptake from rat brain to plasma at 1 mg/kg, iv after 1 hr; format: ADME, organism-based; set-up: dose 1 mg/kg, route intravenous; conditions: read-out: BPR
[17] = Plasma clearance in rat at 1 mg/kg, iv; format: ADME, organism-based; set-up: dose 1 mg/kg, route intravenous

T1 sequence (P08684 whole entry): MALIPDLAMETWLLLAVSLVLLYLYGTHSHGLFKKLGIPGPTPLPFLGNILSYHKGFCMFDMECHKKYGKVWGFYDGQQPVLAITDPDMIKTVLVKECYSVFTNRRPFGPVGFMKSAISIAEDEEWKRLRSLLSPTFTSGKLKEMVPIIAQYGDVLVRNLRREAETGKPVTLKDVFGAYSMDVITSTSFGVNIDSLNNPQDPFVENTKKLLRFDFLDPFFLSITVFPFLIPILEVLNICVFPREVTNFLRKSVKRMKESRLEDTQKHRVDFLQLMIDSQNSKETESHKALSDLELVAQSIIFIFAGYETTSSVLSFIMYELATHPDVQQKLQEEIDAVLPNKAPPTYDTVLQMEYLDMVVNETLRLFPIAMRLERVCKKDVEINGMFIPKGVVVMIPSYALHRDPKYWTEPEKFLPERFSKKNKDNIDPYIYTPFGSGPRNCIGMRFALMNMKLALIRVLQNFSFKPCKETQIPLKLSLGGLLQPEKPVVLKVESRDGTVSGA
T6 sequence (P10635 whole entry): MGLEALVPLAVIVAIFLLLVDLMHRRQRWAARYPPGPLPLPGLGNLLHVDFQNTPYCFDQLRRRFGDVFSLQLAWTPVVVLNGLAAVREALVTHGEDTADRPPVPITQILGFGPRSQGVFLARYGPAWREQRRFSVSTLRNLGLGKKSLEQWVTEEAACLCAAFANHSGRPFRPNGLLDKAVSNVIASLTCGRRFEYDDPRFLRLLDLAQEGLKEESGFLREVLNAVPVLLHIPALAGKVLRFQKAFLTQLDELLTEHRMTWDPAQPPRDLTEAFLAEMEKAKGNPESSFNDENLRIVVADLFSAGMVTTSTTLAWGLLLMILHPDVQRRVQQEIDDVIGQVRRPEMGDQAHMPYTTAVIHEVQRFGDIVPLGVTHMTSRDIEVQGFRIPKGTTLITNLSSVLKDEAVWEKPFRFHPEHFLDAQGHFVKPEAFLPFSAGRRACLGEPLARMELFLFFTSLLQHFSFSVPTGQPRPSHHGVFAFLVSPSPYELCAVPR
T4 sequence (P11712 whole entry): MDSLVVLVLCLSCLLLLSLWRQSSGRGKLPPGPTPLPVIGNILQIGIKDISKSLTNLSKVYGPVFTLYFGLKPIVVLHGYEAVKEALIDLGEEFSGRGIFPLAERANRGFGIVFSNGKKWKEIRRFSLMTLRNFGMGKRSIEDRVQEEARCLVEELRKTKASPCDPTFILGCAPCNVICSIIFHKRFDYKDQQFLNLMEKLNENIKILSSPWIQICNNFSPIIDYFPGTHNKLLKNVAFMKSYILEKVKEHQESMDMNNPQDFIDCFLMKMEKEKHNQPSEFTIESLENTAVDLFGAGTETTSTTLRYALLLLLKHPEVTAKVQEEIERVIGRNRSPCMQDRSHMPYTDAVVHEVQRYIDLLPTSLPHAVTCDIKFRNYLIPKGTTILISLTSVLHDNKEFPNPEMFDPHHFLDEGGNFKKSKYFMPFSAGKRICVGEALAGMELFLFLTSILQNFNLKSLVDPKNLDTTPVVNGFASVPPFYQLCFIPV
T5 sequence (P33261 whole entry): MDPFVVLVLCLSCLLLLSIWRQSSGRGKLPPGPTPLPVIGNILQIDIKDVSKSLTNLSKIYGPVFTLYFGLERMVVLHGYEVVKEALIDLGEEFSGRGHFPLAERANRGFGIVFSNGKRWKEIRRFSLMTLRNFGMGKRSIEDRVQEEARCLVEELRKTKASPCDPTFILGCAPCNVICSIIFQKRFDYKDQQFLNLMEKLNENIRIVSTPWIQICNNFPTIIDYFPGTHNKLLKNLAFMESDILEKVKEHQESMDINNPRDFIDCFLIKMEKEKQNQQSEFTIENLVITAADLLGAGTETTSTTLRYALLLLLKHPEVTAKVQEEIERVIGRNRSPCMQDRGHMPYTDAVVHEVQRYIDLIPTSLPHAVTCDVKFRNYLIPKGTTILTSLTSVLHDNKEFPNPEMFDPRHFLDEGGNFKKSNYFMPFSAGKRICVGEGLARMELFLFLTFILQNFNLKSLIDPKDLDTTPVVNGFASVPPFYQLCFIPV

pKb [2]	pKb [7]	inhibition at 3 µM (CYP2C19 [9]) [%]	inhibition at 3 µM (CYP3A4 [10]) [%]	inhibition at 3 µM (CYP3A4 [11]) [%]	inhibition at 3 µM (CYP2D6 [12]) [%]	inhibition at 3 µM (CYP2C9 [13]) [%]	inhibition at 3 µM (CYP1A2 [14]) [%]	Structure (SMILES)	also measured
8.6	8.6	< 71	< 71	< 71	< 71	< 71	< 71	Cc1ccc(OCc2ccccc2)c(C(=O)N2CC3(CC3)C[C@H]2CNc2ccc(C(F)(F)F)cn2)n1	–
7	6.9	< 58	< 58	< 58	< 58	< 58	< 58	O=C(c1nc(OC(F)(F)F)ccc1-c1ncccn1)N1CC2(CC2)C[C@H]1CNc1ccc(C(F)(F)F)cn1	–
6.7	5	< 39	< 39	< 39	< 39	< 39	< 39	O=C(c1nc(C(F)(F)F)ccc1-c1ncccn1)N1CC2(CC2)C[C@H]1CNc1ccc(C(F)(F)F)cn1	–
8.1	7.2	< 22	< 22	< 22	< 22	< 22	< 22	O=C(c1cc(Cl)ccc1-c1ncccn1)N1CC2(CC2)C[C@H]1CNc1ccc(C(F)(F)F)cn1	–
8.6	8	< 89	< 89	< 89	< 89	< 89	< 89	Cc1ccc(-c2nccs2)c(C(=O)N2CC3(CC3)C[C@H]2CNc2ccc(C(F)(F)F)cn2)n1	–
8	8.1	< 32	< 32	< 32	< 32	< 32	< 32	N#Cc1ccc(-c2ncccn2)c(C(=O)N2CC3(CC3)C[C@H]2CNc2ccc(C(F)(F)F)cn2)c1	–
8.7	6.6	–	–	–	–	–	–	Cc1ccc(-c2ncccn2)c(C(=O)N2CC3(CC3)C[C@H]2CNc2ccc(C(F)(F)F)cn2)c1	–
7.7	5	< 47	< 47	< 47	< 47	< 47	< 47	O=C(c1ncccc1-c1ncccn1)N1CC2(CC2)C[C@H]1CNc1ccc(C(F)(F)F)cn1	–
7.7	< 5	–	–	–	–	–	–	Cc1nc(C(=O)N2CCC3(CC3)C[C@H]2CNc2ccc(C(F)(F)F)cn2)c(-c2ccccc2)s1	–
8.9	8.3	< 85	< 85	< 85	< 85	< 85	< 85	Cc1cnn(-c2ccc(C)nc2C(=O)N2CC3(CC3)C[C@H]2CNc2ccc(C(F)(F)F)cn2)c1	–

Second part, the compound before the results:

Structure (SMILES)	pKb [2]	pKb [7]	inhibition at 3 µM (CYP2C19 [9]) [%]	inhibition at 3 µM (CYP3A4 [10]) [%]	inhibition at 3 µM (CYP3A4 [11]) [%]	inhibition at 3 µM (CYP2D6 [12]) [%]	inhibition at 3 µM (CYP2C9 [13]) [%]	inhibition at 3 µM (CYP1A2 [14]) [%]	also measured
Cc1nc(C(=O)N2CC3(CC3)C[C@H]2CNc2cc(C(F)(F)F)ccn2)c(-c2ccccc2)s1	8.2	8.5	–	–	–	–	–	–	inhibition at 1 µM (CYP3A4 [1]): < 55%; inhibition at 1 µM (CYP1A2 [3]): < 55%; inhibition at 1 µM (CYP2C9 [4]): < 55%; inhibition at 1 µM (CYP2C19 [5]): < 55%; inhibition at 1 µM (CYP2D6 [6]): < 55%; inhibition at 1 µM (CYP3A4 [8]): < 55%
Cc1ccc(-n2nccn2)c(C(=O)N2CC3(CC3)C[C@H]2CNc2ccc(Cl)cn2)c1	8.1	< 5	–	–	–	–	–	–	–
Cc1cc(C(F)(F)F)cc(NC[C@@H]2CC3(CC3)CN2C(=O)c2nc(C)sc2-c2ccccc2)n1	7.8	8.6	–	–	–	–	–	–	inhibition at 1 µM (CYP3A4 [1]): < 69%; inhibition at 1 µM (CYP1A2 [3]): < 69%; inhibition at 1 µM (CYP2C9 [4]): < 69%; inhibition at 1 µM (CYP2C19 [5]): < 69%; inhibition at 1 µM (CYP2D6 [6]): < 69%; inhibition at 1 µM (CYP3A4 [8]): < 69%
Cc1nc(C(=O)N2CC3(CC3)C[C@H]2CNc2ncc(Cl)cn2)c(-c2ccccc2)s1	6.8	6.8	–	–	–	–	–	–	–
O=C(c1cc(Cl)ccc1-c1ncccn1)N1CC2(CC2)C[C@H]1CNc1cc(C(F)(F)F)ccn1	8.1	7.1	–	–	–	–	–	–	inhibition at 1 µM (CYP3A4 [1]): < 57%; inhibition at 1 µM (CYP1A2 [3]): < 57%; inhibition at 1 µM (CYP2C9 [4]): < 57%; inhibition at 1 µM (CYP2C19 [5]): < 57%; inhibition at 1 µM (CYP2D6 [6]): < 57%; inhibition at 1 µM (CYP3A4 [8]): < 57%
Cc1cccc(NC[C@@H]2CC3(CC3)CN2C(=O)c2nc(C)sc2-c2ccccc2)n1	7.3	7.6	–	–	–	–	–	–	–
Cc1ccc(-c2ncccn2)c(C(=O)N2CCC3(CC3)C[C@H]2CNc2ccc(Cl)cn2)c1	7.6	< 5	–	–	–	–	–	–	–
Cc1nc(C(=O)N2CCC3(CC3)C[C@H]2CNc2ccc(Cl)cn2)c(-c2ccccc2)s1	7.9	< 5	–	–	–	–	–	–	–
Cc1ccc(-n2nccn2)c(C(=O)N2CCC3(CC3)C[C@H]2CNc2cccc(C)n2)c1	8.2	< 5	–	–	–	–	–	–	–
CS(=O)(=O)c1ccc(-c2ccccc2)c(C(=O)N2CC3(CC3)C[C@H]2CNc2ccc(C(F)(F)F)cn2)c1	6.7	7.1	< 41	< 41	< 41	< 41	< 41	< 41	–
Cc1ccc(-c2ncccn2)c(C(=O)N2CC3(CC3)C[C@H]2CNc2cc(C(F)(F)F)ccn2)c1	7.3	7.8	–	–	–	–	–	–	inhibition at 1 µM (CYP3A4 [1]): < 72%; inhibition at 1 µM (CYP1A2 [3]): < 72%; inhibition at 1 µM (CYP2C9 [4]): < 72%; inhibition at 1 µM (CYP2C19 [5]): < 72%; inhibition at 1 µM (CYP2D6 [6]): < 72%; inhibition at 1 µM (CYP3A4 [8]): < 72%
Cc1nc(C(=O)N2CC3(CC3)C[C@H]2CNc2ccc(Cl)cn2)c(-c2ccccc2)s1	8.3	7.1	–	–	–	–	–	–	–
Cc1ccc(-c2ncccn2)c(C(=O)N2CC3(CC3)C[C@H]2CNc2cc(C#N)ccn2)n1	–	–	–	–	–	–	–	–	inhibition at 1 µM (CYP3A4 [1]): < 17%; inhibition at 1 µM (CYP1A2 [3]): < 17%; inhibition at 1 µM (CYP2C9 [4]): < 17%; inhibition at 1 µM (CYP2C19 [5]): < 17%; inhibition at 1 µM (CYP2D6 [6]): < 17%; inhibition at 1 µM (CYP3A4 [8]): < 17%
Cc1ccnc(NC[C@@H]2CC3(CC3)CN2C(=O)c2nc(C)sc2-c2ccccc2)n1	6.1	7	–	–	–	–	–	–	–
Cc1ccc(-n2nccn2)c(C(=O)N2CCC3(CC3)C[C@H]2CNc2ccc(Cl)cn2)c1	7.5	< 5	–	–	–	–	–	–	–
Cc1ccc(-n2nccn2)c(C(=O)N2CC3(CC3)C[C@H]2CNc2cccc(C)n2)c1	7.1	< 5	–	–	–	–	–	–	inhibition at 1 µM (CYP3A4 [1]): < 34%; Vd [15]: 0.48 L/kg; inhibition at 1 µM (CYP1A2 [3]): < 34%; inhibition at 1 µM (CYP2C9 [4]): < 34%; inhibition at 1 µM (CYP2C19 [5]): < 34%; Kp at 1 h [16]: 0.2; inhibition at 1 µM (CYP2D6 [6]): < 34%; inhibition at 1 µM (CYP3A4 [8]): < 34%; clearance [17]: 33.1 mL/min/kg
